According to ChEMBL document CHEMBL1201862, “PubChem BioAssay data set” (2004):
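48-hour exposure; five concentrations; linearly interpolated endpoints. GI50 = concentration required for 50% inhibition of growth.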 Activity calls are given as the source filed them. Rule as the data show it: active = GI50 up to about 1.1 µM and inactive = higher.

Legend:
Test in all cases: NCI anticancer screen, dose series, 48 h
CCRF-CEM = test system: CCRF-CEM
COLO 205 = test system: COLO 205
EKVX = test system: EKVX
HCC 2998 = test system: HCC 2998
HL-60 = test system: HL-60
IGROV-1 = test system: IGROV-1
LOX IMVI = test system: LOX IMVI
NCI-H23 = test system: NCI-H23
RPMI-8226 = test system: RPMI-8226
RXF 393 = test system: RXF 393
SF-268 = test system: SF-268
SF-295 = test system: SF-295
SK-MEL-5 = test system: SK-MEL-5
TK-10 = test system: TK-10
UACC-257 = test system: UACC-257
UACC-62 = test system: UACC-62
SNB-75 = test system: SNB-75
Hs-578T = test system: Hs-578T
PC-3 = test system: PC-3

SMILES	GI50 (CCRF-CEM)	GI50 (COLO 205)	GI50 (EKVX)	GI50 (HCC 2998)	GI50 (HL-60)	GI50 (IGROV-1)	GI50 (LOX IMVI)	GI50 (NCI-H23)	GI50 (RPMI-8226)	GI50 (RXF 393)	GI50 (SF-268)	GI50 (SF-295)	GI50 (SK-MEL-5)	GI50 (TK-10)	GI50 (UACC-257)	GI50 (UACC-62)	GI50 (SNB-75)	GI50 (Hs-578T)	GI50 (PC-3)
Cn1c(C2CC(C)(C)c3c2c2ccccc2n3C)cc2ccccc21 (stereo not drawn)	> 304 µM (inactive)	> 304 µM (inactive)	> 304 µM (inactive)	> 304 µM (inactive)	> 304 µM (inactive)	225 µM (inactive)	> 304 µM (inactive)	> 304 µM (inactive)	118 µM (inactive)	> 304 µM (inactive)	> 304 µM (inactive)	195 µM (inactive)	> 304 µM (inactive)	> 304 µM (inactive)	265 µM (inactive)	> 304 µM (inactive)			
C[N+](C)(C)Cc1c(CC#N)[nH]c2ccccc12	35.4 µM (inactive)	> 100 µM (inactive)	> 100 µM (inactive)	> 100 µM (inactive)	36.9 µM (inactive)	> 100 µM (inactive)	> 100 µM (inactive)	> 100 µM (inactive)	31.6 µM (inactive)	> 100 µM (inactive)	> 100 µM (inactive)	> 100 µM (inactive)	> 100 µM (inactive)	> 100 µM (inactive)	> 100 µM (inactive)	> 100 µM (inactive)	96.2 µM (inactive)		
CCOc1cc(C(c2c(O)c3ccccc3oc2=O)c2c(O)c3ccccc3oc2=O)ccc1OC	22.1 µM (inactive)	20 µM (inactive)	21.3 µM (inactive)		24.8 µM (inactive)	17.7 µM (inactive)	20.6 µM (inactive)	23.4 µM (inactive)	22.3 µM (inactive)		18.9 µM (inactive)	19.4 µM (inactive)	23.2 µM (inactive)	18 µM (inactive)	16.4 µM (inactive)	18.5 µM (inactive)		26.8 µM (inactive)	17.3 µM (inactive)
CC(=O)n1ccc2c(Cl)ncnc21	> 100 µM (inactive)	> 100 µM (inactive)	> 67.3 µM (inactive)	> 100 µM (inactive)	> 100 µM (inactive)	> 100 µM (inactive)	> 100 µM (inactive)	> 100 µM (inactive)	> 100 µM (inactive)	0.038 µM (active)	> 100 µM (inactive)	> 100 µM (inactive)	> 100 µM (inactive)	> 100 µM (inactive)	> 100 µM (inactive)	> 100 µM (inactive)	< 0.01 µM (active)		
O=c1[nH]c(=O)n([C@@H]2O[C@H](CO)[C@@H](O)[C@@H]2F)cc1I [FIALURIDINE]	4.8 µM (inactive)	> 100 µM (inactive)	> 100 µM (inactive)	> 100 µM (inactive)	> 100 µM (inactive)	> 100 µM (inactive)	46.3 µM (inactive)	> 100 µM (inactive)		54.1 µM (inactive)	> 100 µM (inactive)	> 100 µM (inactive)	> 100 µM (inactive)	> 100 µM (inactive)	> 100 µM (inactive)	> 100 µM (inactive)	> 100 µM (inactive)	> 100 µM (inactive)	
CC(C)C(/N=C/c1ccccc1O)C(=O)O (stereo not drawn)	> 100 µM (inactive)	> 100 µM (inactive)	> 100 µM (inactive)		> 100 µM (inactive)	> 100 µM (inactive)	> 100 µM (inactive)	> 100 µM (inactive)	> 100 µM (inactive)		> 100 µM (inactive)	> 100 µM (inactive)	> 100 µM (inactive)	> 100 µM (inactive)	> 100 µM (inactive)	> 100 µM (inactive)		59.2 µM (inactive)	87.7 µM (inactive)
COc1c(C)cc2c(c1O)C1NC(C2)[C@H](O)N2C3COC(=O)[C@@]4(CS[C@@H](c5c(OC(C)=O)c(C)c6c(c53)OCO6)C12)NCCC1=C4NC2C=CC=CC12 (stereo partly drawn)	< 0.01 µM (active)	< 0.01 µM (active)	< 0.01 µM (active)	< 0.01 µM (active)	< 0.01 µM (active)	< 0.01 µM (active)	< 0.01 µM (active)	< 0.01 µM (active)	< 0.01 µM (active)	< 0.01 µM (active)	< 0.01 µM (active)	< 0.01 µM (active)	< 0.01 µM (active)	< 0.01 µM (active)		< 0.01 µM (active)	< 0.01 µM (active)		
C[C@@]1(O)C2CC3CC1(c1ccccc1)CC(/C3=N/O)/C2=N\O (stereo partly drawn)	> 100 µM (inactive)	> 100 µM (inactive)	> 100 µM (inactive)	> 100 µM (inactive)	> 100 µM (inactive)	> 100 µM (inactive)	> 100 µM (inactive)	> 100 µM (inactive)		> 100 µM (inactive)	> 100 µM (inactive)	> 100 µM (inactive)	> 100 µM (inactive)		> 100 µM (inactive)	> 100 µM (inactive)	> 100 µM (inactive)		> 100 µM (inactive)
COc1ccc(/C=C/[N+](=O)[O-])cc1		4.04 µM (inactive)	13.2 µM (inactive)	< 0.01 µM (active)	2.77 µM (inactive)	3.57 µM (inactive)	2.13 µM (inactive)	9.75 µM (inactive)			2.92 µM (inactive)	2.62 µM (inactive)	11.6 µM (inactive)	13 µM (inactive)	2.94 µM (inactive)	14.9 µM (inactive)	14.9 µM (inactive)	3.05 µM (inactive)	
CC(=O)OCCC[C@@H]1C(=C(C)C)CCC2[C@@]1(C)CC[C@@]1(C)C[C@](C)(CCC=C(C)C)CC[C@]21C (stereo partly drawn)	> 100 µM (inactive)	> 100 µM (inactive)	> 100 µM (inactive)	> 100 µM (inactive)	> 100 µM (inactive)	> 100 µM (inactive)		> 100 µM (inactive)	> 100 µM (inactive)		> 100 µM (inactive)	> 100 µM (inactive)	> 100 µM (inactive)	< 0.01 µM (active)	> 100 µM (inactive)	> 100 µM (inactive)	7.94 µM (inactive)	> 100 µM (inactive)	18.5 µM (inactive)
COc1ccc(-n2nnnc2C2(Nc3ccccc3)CCN(Cc3ccccc3)CC2)cc1	18.7 µM (inactive)	6.82 µM (inactive)	21.6 µM (inactive)	3.93 µM (inactive)	2.56 µM (inactive)	11.9 µM (inactive)	9.29 µM (inactive)	21 µM (inactive)	9.77 µM (inactive)	17.5 µM (inactive)	> 10 µM (inactive)	13.6 µM (inactive)	10.2 µM (inactive)	12.4 µM (inactive)	13.8 µM (inactive)	10.5 µM (inactive)	12.2 µM (inactive)	4.51 µM (inactive)	
N#Cc1c(N)n(-c2cccc(C(=O)O)c2)c(=O)c2cc([N+](=O)[O-])ccc12		> 100 µM (inactive)		> 100 µM (inactive)	> 100 µM (inactive)		> 100 µM (inactive)	> 100 µM (inactive)	> 100 µM (inactive)		> 100 µM (inactive)		> 100 µM (inactive)	> 100 µM (inactive)	> 100 µM (inactive)	> 100 µM (inactive)	> 100 µM (inactive)	> 100 µM (inactive)	42 µM (inactive)
O=C1C2=C(c3ccccc31)C(c1ccc(F)cc1)N1C(=O)CCSC1=N2 (stereo not drawn)	89.5 µM (inactive)	> 100 µM (inactive)	> 100 µM (inactive)	> 100 µM (inactive)	65.6 µM (inactive)	> 100 µM (inactive)		> 100 µM (inactive)	49.2 µM (inactive)		> 100 µM (inactive)	> 100 µM (inactive)	60.5 µM (inactive)	> 100 µM (inactive)	> 100 µM (inactive)	62.1 µM (inactive)	24.4 µM (inactive)		
O=C(Cn1c2c(c3ccccc31)CCCC2)N1CCCC1		> 100 µM (inactive)	> 100 µM (inactive)	> 100 µM (inactive)	94.6 µM (inactive)	> 100 µM (inactive)	> 100 µM (inactive)	> 100 µM (inactive)	> 100 µM (inactive)			61.8 µM (inactive)	54.3 µM (inactive)	> 100 µM (inactive)	> 100 µM (inactive)	78.5 µM (inactive)		22.8 µM (inactive)	> 100 µM (inactive)
O=c1cc(CO)n(CCc2c[nH]c3ccccc23)cc1O	29.5 µM (inactive)	55 µM (inactive)	> 100 µM (inactive)			86.5 µM (inactive)	> 100 µM (inactive)	73.8 µM (inactive)	> 100 µM (inactive)		20.7 µM (inactive)	> 100 µM (inactive)	47.8 µM (inactive)	> 100 µM (inactive)	> 100 µM (inactive)	23.9 µM (inactive)		28.1 µM (inactive)	> 100 µM (inactive)
Cn1c(-c2c(C3=CC(=O)N(c4ccccc4)C3=O)c3ccccc3n2C)cc2ccccc21	18.9 µM (inactive)	> 100 µM (inactive)	4.51 µM (inactive)	> 100 µM (inactive)	45.1 µM (inactive)	> 100 µM (inactive)	> 100 µM (inactive)	> 100 µM (inactive)	92.7 µM (inactive)	4.4 µM (inactive)		34.1 µM (inactive)	> 100 µM (inactive)	> 100 µM (inactive)	> 100 µM (inactive)	> 100 µM (inactive)	55.8 µM (inactive)		> 100 µM (inactive)
CC/C=C1\N=C(c2ccc(Cl)cc2)OC1=O	> 100 µM (inactive)	> 100 µM (inactive)	> 100 µM (inactive)	> 100 µM (inactive)	> 100 µM (inactive)	> 100 µM (inactive)	> 100 µM (inactive)	> 100 µM (inactive)	> 100 µM (inactive)	> 100 µM (inactive)	> 100 µM (inactive)	> 100 µM (inactive)		> 100 µM (inactive)	> 100 µM (inactive)	> 100 µM (inactive)	> 100 µM (inactive)		
